Experiments:
[1] = tested on: focal cerebral ischemia induced by MCAO (middle cerebral artery occlusion) in rats; assay: focal cerebral ischemia induced by MCAO (middle cerebral artery occlusion) in rats; assay type: in vivo, SD rat; settings: induced by ADP-2Na, final concentration of ADP, turbidimetry; 50mg/kg gavage once daily for 5 days; X±SD
Description: Male SD rats, weighing 240~290g, grouping and dosages were as above. Additionally, a positive control group, i.e., nimodipine 50mg/kg group was set up. Animals of each group were gavage once daily for consecutive 5 days in predetermined dosage. At 30 minute after the last administration, the animals were anesthetized with 12% chloral hydrate in 350 mg/kg via intraperitoneal injection. The animals were kept left lateral position and the skin was cut along the middle point between right ear and eye line. Temporalis was separated and cheekbone was sheared. A holl was drilled with a dental drill in front of zygomatic root and MCA was exposed. […]
The animals were scored on neurological functions at 6 hour and 24 hour after modeling, according to behavior such as movement. […]
24 hour after modeling and after neurological scoring, blood was taken via carotid artery intubation in duplicate. For one sample, serum was separated and the activity of AST and LDH was determined according to the method of the kit; for another sample, it was treated with 3.8% sodium citrate in 1:9 for the purpose of anticoagulation, centrifuged at 1000rpm for 5 minutes to prepare platelet rich plasma (PRP), and centrifuged at 3500rpm for 10 minutes to prepare platelet poor plasma (PPP). […]

[2] = comparative study on solubilities (China Pharmacopeia 2005 terms); assay type: physicochemical; settings: terms per China Pharmacopeia 2005
[3] = background statement; cited from earlier work

Row | SMILES | rate of platelet aggregation [1] [%] | solubility in 0.01NNaOH ([2]; 0.01NNaOH) | solubility in 95%EtOH ([2]; 95%EtOH) | solubility in H2O ([2]; H2O) | solubility in MeOH ([2]; MeOH) | solubility in n-BuOH ([2]; n-BuOH) | solubility in water [3]
1 | COCCOC(=O)C1=C(C)NC(C)=C(C(=O)OC(C)C)C1c1cccc([N+](=O)[O-])c1 (stereo not shown) [nimodipine, reference compound] | 54.15±7.76 |  |  |  |  |  | 
2 | O=C(O)[C@H]1O[C@@H](Oc2cc3oc(-c4ccc(O)cc4)cc(=O)c3c(O)c2O)[C@H](O)[C@@H](O)[C@@H]1O [scutellarin] |  | soluble | slightly soluble | very slightly soluble | slightly soluble | slightly soluble | sparingly soluble

From patent EP2292242B1, “A SCUTELLARIN DERIVATIVE, THE PREPARING PROCESS, THE PHARMACEUTICAL COMPOSITION AND THE USE THEREOF” (Kunming Pharmaceutical Corp., priority 2008, dated 2009)
